From patent US8278312B2, “Imidazo 1,2-a pyrimidine derivatives for the treatment of diseases such as diabetes” (Merck Patent Gesellschaft mit Beschränkter Haftung, priority 2007, dated 2012) come the findings set out here.

For one assay, the target named is T1, SGLT2 (Homo sapiens, UniProt P31639).
T1 construct: expressed in transfected cells
T1 sequence (P31639 1-672): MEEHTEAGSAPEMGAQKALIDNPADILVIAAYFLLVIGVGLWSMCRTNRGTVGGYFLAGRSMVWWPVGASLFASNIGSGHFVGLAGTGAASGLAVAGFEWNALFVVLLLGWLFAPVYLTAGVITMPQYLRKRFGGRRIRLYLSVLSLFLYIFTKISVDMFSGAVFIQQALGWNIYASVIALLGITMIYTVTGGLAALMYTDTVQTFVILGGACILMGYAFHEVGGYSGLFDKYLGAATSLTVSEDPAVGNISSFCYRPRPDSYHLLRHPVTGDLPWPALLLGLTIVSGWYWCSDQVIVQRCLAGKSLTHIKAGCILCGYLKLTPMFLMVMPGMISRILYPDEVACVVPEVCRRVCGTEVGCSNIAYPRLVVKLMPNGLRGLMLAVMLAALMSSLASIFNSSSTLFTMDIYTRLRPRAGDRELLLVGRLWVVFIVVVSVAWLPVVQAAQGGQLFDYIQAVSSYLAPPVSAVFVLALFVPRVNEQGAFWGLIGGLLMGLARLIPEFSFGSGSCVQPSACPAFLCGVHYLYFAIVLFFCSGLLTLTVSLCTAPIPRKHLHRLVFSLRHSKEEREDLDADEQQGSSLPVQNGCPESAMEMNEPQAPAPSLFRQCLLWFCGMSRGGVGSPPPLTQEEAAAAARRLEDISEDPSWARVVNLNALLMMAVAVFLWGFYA
The assay is described as follows: 14C-AMG uptake in BHK cells transfected with SGLT2 (96-well cell-based assay). As to conditions: 2 mM AMG, 37° C., 90 min. The text has this: (§1) The compounds can be tested for their SGLT inhibition properties by means of BHK cells expressing SGLT1 and SGLT2. The production of the cells and the testing can be carried out as described below.
To construct the SGLT2 expression vector (KL224), the SLC5A2 gene (homologous to NM_003041) was amplified from a cDNA library using standard PCR technology and cloned over NheI/XhoI sites into PCI-neo expression vector (Promega) containing neomycin as a selection marker. In this vector, transcription uses the enhancer/promoter of human cytomegalovirus and the SV40 polyadenylation signal.
(§2) The final vector KL224 together with an additional vector containing a dihydrofolate reductase gene as a selection marker was introduced into cells. Transfection into BHK21 cells (ATCC CCL-10), cultivated in DMEM medium (GIBCO/BRL), supplemented with 10% foetal calf serum (FCS) and 20 mM glutamine, was carried out using calcium phosphate transfections according to Graham, F. L. and van der Ebb, A. J. (1973), Virology 52: 456 with 5-20 μg of uncut plasmids for 10^7 cells. Stable transfectants were selected in medium containing 1 mg/ml of G418 (GIBCO/BRL) and 20-5000 nM methotrexate as final concentration, where only cells which expressed the neomycin gene and overexpressed the dhfr gene were able to grow. After growth for 2-3 weeks, the cells were cloned (0.5 cells/well) and the clones were investigated for SGLT expression in radioactivity uptake tests. […]
(§3) A 96-well cell-based assay was developed and adapted to HTS requirements:
(§4) BHK cells (transfected with SGLT1 or SGLT2) were seeded into 96-well microtitre plates (Cultureplates, Perkin Elmer). After at least 24 h, medium was removed, and the cell layer was washed with assay buffer (140 mM NaCl, 2 mM KCl, 1 mM CaCl2, 1 mM MgCl2, 10 mM HEPES, 5 mM Tris, adjusted to pH 7.4 using 1 M KOH). After addition of 40 μl of assay buffer, 50 μl of AMG (50 μM for SGLT1 and 2 mM for SGLT2) in the presence or absence of compounds, the cells were incubated in a total volume of 100 μl at 37° C. for 90 min. Supernatant was removed by suction and discarded. Cells were washed and lysed by addition of 50 μl of water. After 10 min at room temperature, 200 μl of Micrsoscint 40 (Perkin Elmer) were added. The radioactivity was counted in a Topcount microplate scintillation counter (Perkin Elmer). The non-specific uptake was determined in sodium-free assay buffer (266 mM sucrose, 2 mM KCl, 1 mM CaCl2, 1 mM MgCl2, 10 mM HEPES, 5 mM Tris, adjusted to pH 7.4 using 1 M KOH).

A further assay has as its target T2, SGLT1 (Homo sapiens, UniProt P13866).
T2 construct: expressed in transfected cells
T2 sequence (P13866 1-664): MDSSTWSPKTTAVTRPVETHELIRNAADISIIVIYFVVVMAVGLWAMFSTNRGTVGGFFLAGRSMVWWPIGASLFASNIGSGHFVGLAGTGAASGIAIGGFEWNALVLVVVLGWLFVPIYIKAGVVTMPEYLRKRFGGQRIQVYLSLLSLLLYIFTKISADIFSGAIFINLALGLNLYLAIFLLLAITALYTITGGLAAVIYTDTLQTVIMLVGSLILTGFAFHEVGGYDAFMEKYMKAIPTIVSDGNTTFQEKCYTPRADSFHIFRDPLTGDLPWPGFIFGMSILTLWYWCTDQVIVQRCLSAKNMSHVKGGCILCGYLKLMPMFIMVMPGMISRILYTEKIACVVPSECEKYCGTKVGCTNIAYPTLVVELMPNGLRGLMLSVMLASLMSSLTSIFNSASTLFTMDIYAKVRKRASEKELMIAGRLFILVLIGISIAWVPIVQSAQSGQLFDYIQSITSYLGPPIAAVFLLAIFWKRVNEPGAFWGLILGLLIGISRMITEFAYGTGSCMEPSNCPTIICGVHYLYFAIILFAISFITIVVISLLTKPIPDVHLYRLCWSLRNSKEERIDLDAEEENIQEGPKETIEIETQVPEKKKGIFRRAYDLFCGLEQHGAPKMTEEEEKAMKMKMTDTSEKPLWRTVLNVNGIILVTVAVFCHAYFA
Put plainly: 14C-AMG uptake in BHK cells transfected with SGLT1 (96-well cell-based assay). As to conditions: 50 μM AMG, 37° C., 90 min.
Description: as §1
To construct the SGLT1 expression vector (KL225), the SLC5A1 gene (homologous to NM_000343) was amplified from a cDNA library using standard PCR technology and cloned over NheI/XhoI sites into the pcDNA3.1 expression vector (Invitrogen) containing neomycin as a selection marker. In this vector, transcription uses the enhancer/promoter of human cytomegalovirus.
as §2, with “KL225” for “KL224”
as §3, §4

pIC50: −log10 of the molar value.

On to `CNc1nnc(-c2cccc(Cl)c2-c2nc3ncccn3c2Nc2c(C)cccc2C)o1` [Compound A19, {2-[2-Chloro-6-(5-methylamino-1,3,4-oxadiazol-2-yl)phenyl]imidazo[1,2-a]-pyrimidin-3-yl}-(2,6-dimethylphenyl)amine], for which the pIC50 against SGLT2 is 6.00 to 8.00; on SGLT1 it was 5.00 to 6.00.
In the same order, the values of `COC(=O)c1cccc(Cl)c1-c1nc2ncccn2c1Nc1c(C)cccc1C` [Compound A20, Methyl 3-chloro-2-[3-(2,6-dimethyl-phenylamino)imidazo[1,2-a]pyrimidin-2-yl)benzoate] are 6.00 to 8.00 and < 5.00.
In the same order, the values of `CNc1nnc(-c2cc(OC)ccc2-c2nc3ncccn3c2Nc2c(C)cccc2C)o1` [Compound A21, (2,6-Dimethylphenyl)-{2-[4-methoxy-2-(5-methylamino-1,3,4-oxadiazol-2-yl)-phenyl]imidazo[1,2-a]pyrimidin-3-yl}-amine] are 6.00 to 8.00 and < 5.00.
On the same counts, the results for `CNc1nnc(-c2cccc(Cl)c2-c2nc3ncccn3c2Nc2c(C)cccc2Cl)o1` [Compound A22, {2-[2-Chloro-6-(5-methylamino-1,3,4-oxadiazol-2-yl)phenyl]imidazo[1,2-a]-pyrimidin-3-yl}-(2-chloro-6-methylphenyl)-amine] are 6.00 to 8.00 and 6.00 to 8.00.
In the case of `CNc1nnc(-c2cc(OC)cc(OC)c2-c2nc3ncccn3c2Nc2c(Cl)ccc(C)c2Cl)o1` [Compound A23, (2,6-Dichloro-3-methylphenyl)-{2-[2,4-dimethoxy-6-(5-methylamino-1,3,4-oxadiazol-2-yl)phenyl]imidazo[1,2-a]-pyrimidin-3-yl}amine], the pIC50 against SGLT2 and against SGLT1 was 6.00 to 8.00 each time.
For `CCNC(=O)c1cc(OC)cc(OC)c1-c1nc2ncccn2c1Nc1c(Cl)ccc(C)c1Cl` [Compound A24, 2-[3-(2,6-dichloro-3-methylphenylamino)imidazo[1,2-a]-pyrimidin-2-yl]-N-ethyl-3,5-dimethoxybenzamide], the pIC50 on SGLT2 and at SGLT1 was 6.00 to 8.00 each time.
As for `CNc1nnc(-c2ccccc2-c2nc3ncccn3c2Nc2c(C)noc2C)o1` [Compound A25, (3,5-Dimethylisoxazol-4-yl)-{2-[2-(5-methylamino-1,3,4-oxadiazol-2-yl)-phenyl]imidazo[1,2-a]pyrimidin-3-yl}-amine], the pIC50 on SGLT2 and on SGLT1 was < 5.00 in each case.
Take `CNc1nnc(-c2cccc(F)c2-c2nc3ncccn3c2Nc2c(C)cccc2Cl)o1` [Compound A26, (2-Chloro-6-methylphenyl)-{2-[2-fluoro-6-(5-methylamino-1,3,4-oxadiazol-2-yl)-phenyl]imidazo[1,2-a]pyrimidin-3-yl}-amine]: the pIC50 against SGLT2 is 6.00 to 8.00; at SGLT1, 5.00 to 6.00.
On the same counts, the results for `CNc1nnc(-c2cccc(F)c2-c2nc3ncccn3c2Nc2c(C)cc(F)cc2C)o1` [Compound A27, (4-Fluoro-2,6-dimethylphenyl)-{2-[2-fluoro-6-(5-methylamino-1,3,4-oxadiazol-2-yl)phenyl]imidazo[1,2-a]pyrimidin-3-yl}-amine] are 6.00 to 8.00 and 5.00 to 6.00.
Consider “(2,6-Dichlorophenyl)-{2-[2-(5-methyl-amino-1,3,4-oxadiazol-2-yl)phenyl]-imidazo[1,2-a]pyrimidin-3-yl}amine [Compound A14]”, for which the pIC50 is 6.00 to 8.00 at SGLT2 and 5.00 to 6.00 at SGLT1.
